{"source": "patent US11420935B2", "about": "“Bicyclic compounds” (Vivace Therapeutics, Inc., priority 2019, dated 2022)"}
{"test_system": "8×TBD luciferase reporter (YAP) in HEK293T cells", "test": "YAP Reporter Assay (8×TBD firefly luciferase reporter)", "assay_type": "cell-based", "conditions": "Homo sapiens, HEK-293T; HEK293T cells stably transfected with 8×TBD luciferase reporter and pRLTK; 24-hr incubation; firefly luciferase activity; read-out: Firefly Luciferase IC50", "outline": "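Stably transfected HEK293T cells (8×TBD firefly luciferase plus TK-renilla) were dosed with 10-point 1:3 dilutions from 3 μM final, quadruplicates, for 24 h at 37 °C. Dual-Glo read firefly and renilla luminescence; IC50 and maximal inhibition reported separately for each.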", "units": {"IC50": "µM"}}
{"smiles": "C[C@H](NC(=O)c1ccc2c(Oc3ccc(C(F)(F)F)cc3)cccc2c1)C1(O)CNC1", "note": "[Compound 138, (S)—N-(1-(3-hydroxyazetidin-3-yl)ethyl)-5-(4-(trifluoromethyl)phenoxy)-2-naphthamide]", "IC50": "0.1 to 1"}
{"smiles": "C[C@@H](NC(=O)c1ccc2c(Oc3ccc(C(F)(F)F)cc3)cccc2c1)C1(O)CNC1", "note": "[Compound 139, (R)—N-(1-(3-hydroxyazetidin-3-yl)ethyl)-5-(4-(trifluoromethyl)phenoxy)-2-naphthamide]", "IC50": "< 0.1"}
{"smiles": "O=C(N[C@@H](CO)C1CNC1)c1ccc2c(Oc3ccc(C(F)(F)F)cc3)cccc2c1", "note": "[Compound 140, (R)—N-(1-(azetidin-3-yl)-2-hydroxyethyl)-5-(4-(trifluoromethyl)phenoxy)-2-naphthamide]", "IC50": "1 to 3"}
{"smiles": "O=C(N[C@H](CO)C1CNC1)c1ccc2c(Oc3ccc(C(F)(F)F)cc3)cccc2c1", "note": "[Compound 142, (S)—N-(1-(azetidin-3-yl)-2-hydroxyethyl)-5-(4-(trifluoromethyl)phenoxy)-2-naphthamide]", "IC50": "0.1 to 1"}
{"smiles": "C[C@H](CCN(C)C)NC(=O)c1ccc2c(Oc3ccc(C(F)(F)F)cc3)cccc2c1", "note": "[Compound 144, (R)-N-(4-(dimethylamino)butan-2-yl)-5-(4-(trifluoromethyl)phenoxy)-2-naphthamide]", "IC50": "< 0.1"}
{"smiles": "CNCC[C@@H](C)NC(=O)c1ccc2c(Oc3ccc(C(F)(F)F)cc3)cccc2c1", "note": "[Compound 145, (R)-N-(4-(methylamino)butan-2-yl)-5-(4-(trifluoromethyl)phenoxy)-2-naphthamide]", "IC50": "< 0.1"}
{"smiles": "CCNCC[C@@H](C)NC(=O)c1ccc2c(Oc3ccc(C(F)(F)F)cc3)cccc2c1", "note": "[Compound 146, (R)-N-(4-(ethylamino)butan-2-yl)-5-(4-(trifluoromethyl)phenoxy)-2-naphthamide]", "IC50": "< 0.1"}
{"smiles": "C[C@H](CCNCCO)NC(=O)c1ccc2c(Oc3ccc(C(F)(F)F)cc3)cccc2c1", "note": "[Compound 147, (R)-N-(4-((2-hydroxyethyl)amino)butan-2-yl)-5-(4-(trifluoromethyl)phenoxy)-2-naphthamide]", "IC50": "< 0.1"}
{"smiles": "C[C@H](CCNCCF)NC(=O)c1ccc2c(Oc3ccc(C(F)(F)F)cc3)cccc2c1", "note": "[Compound 148, (R)-N-(4-((2-fluoroethyl)amino)butan-2-yl)-5-(4-(trifluoromethyl)phenoxy)-2-naphthamide]", "IC50": "< 0.1"}
{"smiles": "C[C@H](CCNCC(F)F)NC(=O)c1ccc2c(Oc3ccc(C(F)(F)F)cc3)cccc2c1", "note": "[Compound 149, (R)-N-(4-((2,2-difluoroethyl)amino)butan-2-yl)-5-(4-(trifluoromethyl)phenoxy)-2-naphthamide]", "IC50": "< 0.1"}
{"smiles": "C[C@@H](NC(=O)c1ccc2c(Oc3ccc(C(F)(F)F)cc3)cccc2c1)C1CCNCC1", "note": "[Compound 150, (R)-N-(1-(piperidin-4-yl)ethyl)-5-(4-(trifluoromethyl)phenoxy)-2-naphthamide]", "IC50": "< 0.1"}
{"smiles": "C[C@H](NC(=O)c1ccc2c(Oc3ccc(C(F)(F)F)cc3)cccc2c1)C1(F)CNC1", "note": "[Compound 151, (S)-N-(1-(3-fluoroazetidin-3-yl)ethyl)-5-(4-(trifluoromethyl)phenoxy)-2-naphthamide]", "IC50": "1 to 3"}
{"smiles": "C[C@@H](NC(=O)c1ccc2c(Oc3ccc(C(F)(F)F)cc3)cccc2c1)C1(F)CNC1", "note": "[Compound 152, (R)-N-(1-(3-fluoroazetidin-3-yl)ethyl)-5-(4-(trifluoromethyl)phenoxy)-2-naphthamide]", "IC50": "0.1 to 1"}
{"smiles": "C[C@@H](NC(=O)c1ccc2c(Oc3ccc(C(F)(F)F)cc3)cccc2c1)C1CCN(CCO)CC1", "note": "[Compound 153, (R)-N-(1-(1-(2-hydroxyethyl)piperidin-4-yl)ethyl)-5-(4-(trifluoromethyl)phenoxy)-2-naphthamide]", "IC50": "0.1 to 1"}
{"smiles": "C[C@@H](NC(=O)c1ccc2c(Oc3ccc(C(F)(F)F)cc3)cccc2c1)C1CCN(CCF)CC1", "note": "[Compound 154, (R)-N-(1-(1-(2-fluoroethyl)piperidin-4-yl)ethyl)-5-(4-(trifluoromethyl)phenoxy)-2-naphthamide]", "IC50": "0.1 to 1"}
{"smiles": "CCN1CCC([C@@H](C)NC(=O)c2ccc3c(Oc4ccc(C(F)(F)F)cc4)cccc3c2)CC1", "note": "[Compound 155, (R)-N-(1-(1-ethylpiperidin-4-yl)ethyl)-5-(4-(trifluoromethyl)phenoxy)-2-naphthamide]", "IC50": "0.1 to 1"}
{"smiles": "CC(C)N1CCC([C@@H](C)NC(=O)c2ccc3c(Oc4ccc(C(F)(F)F)cc4)cccc3c2)CC1", "note": "[Compound 156, (R)-N-(1-(1-isopropylpiperidin-4-yl)ethyl)-5-(4-(trifluoromethyl)phenoxy)-2-naphthamide]", "IC50": "0.1 to 1"}
{"smiles": "C[C@@H](NC(=O)c1ccc2c(Oc3ccc(C(F)(F)F)cc3)cccc2c1)C1CCN(C)CC1", "note": "[Compound 157, (R)-N-(1-(1-methylpiperidin-4-yl)ethyl)-5-(4-(trifluoromethyl)phenoxy)-2-naphthamide]", "IC50": "< 0.1"}
{"smiles": "C[C@@H](NC(=O)c1ccc2c(Oc3ccc(C(F)(F)F)cc3)cccc2c1)C1CCN(CC(F)F)CC1", "note": "[Compound 162, (R)-N-(1-(1-(2,2-difluoroethyl)piperidin-4-yl)ethyl)-5-(4-(trifluoromethyl)phenoxy)-2-naphthamide]", "IC50": "0.1 to 1"}
